Data: US20250026781A1, “Prodrugs of Neurosteroid Analogs and Uses Thereof” (Emory University, priority 2021, published 2025)
Counter-ions that a name gives are not always drawn.

Assay: Plasma stability assay in human plasma (LC-MS/MS)
Assay type: in vitro ADME
Conditions: 37° C., 3 μM test compound, time points 0-240 min, read-out: Plasma t1/2 (converted)
Experimental: Procaine and procainamide were purchased from Sigma Aldrich. HPLC-grade acetonitrile, water, methanol, and formic acid were purchased from Fisher Scientific. Human plasma (Cat. No. […]2N) was obtained from BIOIVT, and PBS (1× Dulbecco's, pH 7.4) from Thermo Fisher Scientific.
Test compounds were dissolved in DMSO to make a stock solution of 10 mM and then diluted to 500 μM in buffer or 70% methanol. Human plasma was thawed at ambient temperature and aliquoted (994.0 μL) to a 1.5 mL Eppendorf tube in duplicates (vials A and B) for each compound. The plasma was incubated at 37° C. for 10 min in an incubator shaker at 150 RPM; the reaction was initiated by addition of the test compound (6.0 μL), followed by vortex mixing. The total reaction volume was 1000 μL, the final organic solvent concentrations were […] (when 70% methanol was used for dilution) and 0.03% DMSO, and the final concentration of the test compound was 3 μM. The spiked plasma samples were incubated at 37° C. for 4 h. The reactions were terminated at time point 0, 15, 30, 60, 120, 180, and 240 min by taking a 100 μL aliquot from the test incubation mixture and immediately quenching it by adding it into ice-cold acetonitrile or methanol (150 μL) containing 2 μM internal standard (ISTD), followed by vortex mixing. The ISTD was d5-7-ethoxy coumarin. The samples were then centrifuged at 15000 RPM for 25 min at 4° C., and the supernatant was transferred to an LC-MS vial for analysis by LC-MS/MS. Each time point was tested in duplicates followed by in-between blank washes to avoid carryover and to equilibrate the column.
Procaine (poor plasma stability) and procainamide (good plasma stability) were used as controls at the same concentration as that of the test compound. These controls were run in parallel to test the assay's competency. Matrix blank was prepared by adding acetonitrile or methanol containing ISTD to plasma samples without any of the test or control compounds. Also, an additional control sample was made to simply monitor compound degradation in PBS buffer.
Below is a summary of samples prepared for a given test compound in a typical plasma stability assay: • Test compound (TC): 994 μL human plasma+6.0 μL TC (Vial A) • 994 μL human plasma+6.0 μL TC (Vial B) • Control: 596 μL human plasma+3.6 μL (procaine+procainamide) • Blank matrix: 500 μL PBS buffer+100 μL human plasma • Additional control: 142 μL PBS buffer+0.9 μL TC • Quenching mixture: 150 μL acetonitrile or methanol with ISTD (2 μM) • Final volume: 250 μL (100 μL from the incubation mixture+150 μL quenching mixture; final ISTD conc.: 1.2 μM)
LC-MS/MS analysis was performed using Agilent 1260 Infinity II HPLC, coupled with an Agilent G6460 triple quadrupole mass spectrometer (Agilent Technologies, USA). The data were acquired and processed using the Agilent 6460 Quantitative Analysis data processing software.
Reverse-phase HPLC separation for each compound was achieved on an Agilent InfinityLab Poroshell 120 C18 column (2.1×50 mm, 2.7 μm) with a mobile phase composed of methanol/water with 0.1% formic acid or acetonitrile/water with 0.1% formic acid at a flow rate of 0.5 mL/min. Each method was developed in the presence of the ISTD. The column temperature was maintained at 40° C. The detection was operated using the Agilent Jet-Stream electrospray positive ionization under the multiple reaction monitoring (MRM) mode. The mass spec conditions were as follows: dwell time 100 ms; gas flow 10 L/min; nebulizer pressure 45 psi; delta EMV 200 V.
Plots of time (x-axis) vs. the natural logarithm of percent parent remaining (y-axis) were subsequently constructed to determine the slope. Finally, the plasma stability was evaluated using the following equation: […]
In the case of C/C(=N\OC(=O)N(C)C[C@@H]1CCCN1)[C@H]1CC[C@H]2[C@@H]3CCC4C[C@@H](O)CC[C@]4(C)[C@H]3CC[C@]12C (stereo partly drawn) [13a, (E)-1-((3S,8R,9S,10S,13S,14S,17S)-3-hydroxy-10,13-dimethylhexadecahydro-1H-cyclopenta[a]phenanthren-17-yl)ethan-1-one O-(methyl(((S)-pyrrolidin-2-yl)methyl)carbamoyl)oxime trifluoroacetate], the half-life at 3 μM is reported as less than 0.1 h. Compound CNCCN(C)C(=O)O/N=C(\C)[C@H]1CC[C@H]2[C@@H]3CC=C4C[C@@H](O)CC[C@]4(C)[C@H]3CC[C@]12C [12b, (E)-1-((3S,8S,9S,10R,13S,14S,17S)-3-hydroxy-10,13-dimethyl-2,3,4,7,8,9,10,11,12,13,14,15,16,17-tetradecahydro-1H-cyclopenta[a]phenanthren-17-yl)ethan-1-one O-(methyl (2-(methylamino)ethyl)carbamoyl)oxime trifluoroacetate] has a half-life at 3 μM of 1.23 h. Work on CNCCN(C)C(=O)O/N=C(\C)[C@H]1CC[C@H]2[C@@H]3CCC4C[C@@H](O)CC[C@]4(C)[C@H]3CC[C@]12C (stereo partly drawn) [12a, (E)-1-((3S,8R,9S,10S,13S,14S,17S)-3-hydroxy-10,13-dimethylhexadecahydro-1H-cyclopenta[a]phenanthren-17-yl)ethan-1-one O-(methyl (2-(methylamino)ethyl)carbamoyl) oxime trifluoroacetate] yielded a half-life at 3 μM of 1.45 h. CNCCN(C)C(=O)O/N=C(\C)[C@H]1CC[C@H]2[C@@H]3CCC4C[C@H](O)CC[C@]4(C)[C@H]3CC[C@]12C (stereo partly drawn) [12c, (E)-1-((3R,8R,9S,10S,13S,14S,17S)-3-hydroxy-10,13-dimethylhexadecahydro-1H-cyclopenta[a]phenanthren-17-yl)ethan-1-one O-(methyl (2-(methylamino)ethyl)carbamoyl)oxime trifluoroacetate] showed a half-life at 3 μM of 1.39 h. With C/C(=N\OC(=O)N(C)C[C@@H]1CCCN1)[C@H]1CC[C@H]2[C@@H]3CC=C4C[C@@H](O)CC[C@]4(C)[C@H]3CC[C@]12C [13b, (E)-1-((3S,8S,9S,10R,13S,14S,17S)-3-hydroxy-10,13-dimethyl-2,3,4,7,8,9,10,11,12,13,14,15,16,17-tetradecahydro-1H-cyclopenta[a]phenanthren-17-yl)ethan-1-one O-(methyl(((S)-pyrrolidin-2-yl)methyl)carbamoyl)oxime trifluoroacetate] the half-life at 3 μM was less than 0.1 h. Work on C/C(=N\OC(=O)N(C)C[C@@H]1CCCN1)[C@H]1CC[C@H]2[C@@H]3CCC4C[C@H](O)CC[C@]4(C)[C@H]3CC[C@]12C (stereo partly drawn) [13c, (E)-1-((3R,8R,9S,10S,13S,14S,17S)-3-hydroxy-10,13-dimethylhexadecahydro-1H-cyclopenta[a]phenanthren-17-yl)ethan-1-one O-(methyl(((S)-pyrrolidin-2-yl)methyl)carbamoyl)oxime trifluoroacetate] yielded a half-life at 3 μM of less than 0.1 h.
